# Results reported in patent US20220288082A1, “TREATMENT OF DEMENTIA” (Macquarie University, priority 2019, published 2022).
# Columns and labels:
# APP23 mice [1] = experiment: Morris water maze memory testing after chronic treatment; format: in vivo, mouse
# Method: (§1) FIG. 4. LIMK1 inhibition reduced susceptibility to induced seizures and mitigated neuronal network hypersynchronicity and memory deficits in a mouse model of Alzheimer's disease. (A) Excitotoxic seizures were induced by acute intraperitoneal injection of 50 mg/kg body weight pentylenetetrazole (PTZ) followed by timing and scoring (0=no seizures to 7=terminal status epilepticus) of seizure development. Mice were treated with vehicle or 10 mg/kg body weight LIMK1 inhibitor (LIMKi) intraperitoneally 30 minutes prior to seizure induction. […] Only vehicle-treated mice develop severe seizure stages over time (i.e. score=5). […] (B) Compound hippocampal electroencephalography (EEG) recordings over 4 hours in non-transgenic (wt) and APP transgenic (APP23) mice including 2 hours before (Pre) and 2 hours after (Post) LIMKi or vehicle administration. Time of intraperitoneal LIMKi and vehicle administration is indicated with an arrow. […] Frequent spikes pre and post vehicle administration in APP23 mice. In contrast, LIMKi injection mitigates spike activity in APP23 post injection. […] (E) Chronic Limkl inhibition reverts memory deficits in AD mice. APP23 mice develop memory deficits in the Morris water maze (MWM) paradigm at 3 months of age. Treatment with 10 mg/kg LIMKi i.p. (3-4 times per week) was initiated at 3 months of age and continued for =4 months before MWM testing at 7 months of age. […] For bar graphs in (C) and (E), from left to right: non-Tg +vehicle; non-Tg+LIMKi; APP23+vehicle; APP23+LIMKi.
# Memory testing. Memory of mice was assessed in the water T maze paradigm and Morris water maze following published protocols (Ittner et al., 2010, Cell 142, 387-397; Ke et al., 2015, Acta Neuropathol 130, 661-678). Chronic treatment of mice was done by 3-4 times per week intraperitoneal injection of 10 mg/kg LIMKi or vehicle (0.5% hydroxypropyl methylcellulose 606 (HPMC 606), 0.5% polyvinylpyrrolidone k17 (PVP k17) and 0.1% tween 80) starting at 3 months of age and continued until 7 months of age. All mice were acclimatized to the test rooms prior to testing.
# Encouraged by the short-term effects of Compound 1 in neurons and APP23 mice (Example 3), the inventors tested whether long-term treatment could improve memory deficits in APP23 mice. 3-month old APP23 mice were treated for four months before being subjected to memory testing in the MWM. APP23 mice present with significant memory deficits at 3 months of age, that progress with age (Ittner et al., 2016, Science 354:904-908). An intermittent treatment schedule was chosen to avoid potential inhibition of astrocyte-mediated AP clearance that could mask therapeutic effects. At 7 months of age, vehicle-treated APP23 mice presented with significant memory deficits as compared to vehicle-treated non-transgenic mice (FIG. 4E).
# APP23 mice [2] = experiment: Hippocampal telemetric EEG recordings (spikes, cross frequency coupling); format: in vivo, mouse; conditions: for amplitude phase in EEG recordings / modulation index of cross frequency coupling / spike frequency / hypersynchronous discharges in EEG: n=8; for spike frequency / hypersynchronous discharges in EEG: i.p., 2 hours pre vs 2 hours post administration
# Method: as §1
# Electroencephalography. Hippocampal EEG recordings were done with implanted telemetric electrodes (D.S.I.) as previously described (Ittner et al., 2014, Acta neuropathologica communications 2, 149). All recordings were done with mice individually housed in their home cages one week after implantation of transmitters. Compound administration was done intraperitoneally during transient restraining of mice. Vehicle for the LIMK1 inhibitor LIMKi contained hydroxypropyl methylcellulose 606 (HPMC 606) with polyvinylpyrrolidone k17 (PVP k17) and tween 80 in a proportion of 0.5%, 0.5%, 0.1%, respectively. Spike analysis was done with the Neuroscore software module (D.S.I.) as previously described (Ittner et al., 2016, Science 354, 904-908). Cross frequency coupling of theta and gamma waves was performed as previously described (Ittner et al., 2016, Science 354, 904-908).
# [3] = system: C57B^1/6 primary mouse neurons; experiment: Aβ toxicity in cultured primary neurons (dendritic spine loss, cell viability); format: cell-based; conditions: pre-treatment, 0.05 μM oligomeric Aβ
# Method: C57B^1/6 primary mouse neurons were treated with Compound 1 shown below (also referred to herein as LIMKi) together with 0.05 μM oligomeric Aβ (oAβ ) and determined loss of dendritic spines and cell viability.
# Aβ treated neurons presented with loss of spines and reduced viability. […] Next, the inventors determined the potential short-term effects of Compound 1 in vivo. […] Next, the inventors tested the effects of acute Compound 1 administration on neuronal network activity in APP23 mice. […] Furthermore, CFC 1 hour after Compound 1 administration was re-established (data not shown). […] Thus, inhibition of LIMK1 with Compound 1 conferred protection from Aβ toxicity in neurons and from excitotoxicity in vivo. Furthermore, treatment of APP23 with Compound 1 corrected network aberrations including CFC.
# LIMK1 = biological target: T1, LIMK1 (Homo sapiens, UniProt P53667); experiment: LIMK1 activity assay (commercial, Promega); format: biochemical; conditions: in vitro; LIMKi at 100 μm, 10 μm, 1 μm, 0.1 μm; DMSO did not inhibit
# T1 construct: purchased Promega
# T1 sequence (P53667 whole entry): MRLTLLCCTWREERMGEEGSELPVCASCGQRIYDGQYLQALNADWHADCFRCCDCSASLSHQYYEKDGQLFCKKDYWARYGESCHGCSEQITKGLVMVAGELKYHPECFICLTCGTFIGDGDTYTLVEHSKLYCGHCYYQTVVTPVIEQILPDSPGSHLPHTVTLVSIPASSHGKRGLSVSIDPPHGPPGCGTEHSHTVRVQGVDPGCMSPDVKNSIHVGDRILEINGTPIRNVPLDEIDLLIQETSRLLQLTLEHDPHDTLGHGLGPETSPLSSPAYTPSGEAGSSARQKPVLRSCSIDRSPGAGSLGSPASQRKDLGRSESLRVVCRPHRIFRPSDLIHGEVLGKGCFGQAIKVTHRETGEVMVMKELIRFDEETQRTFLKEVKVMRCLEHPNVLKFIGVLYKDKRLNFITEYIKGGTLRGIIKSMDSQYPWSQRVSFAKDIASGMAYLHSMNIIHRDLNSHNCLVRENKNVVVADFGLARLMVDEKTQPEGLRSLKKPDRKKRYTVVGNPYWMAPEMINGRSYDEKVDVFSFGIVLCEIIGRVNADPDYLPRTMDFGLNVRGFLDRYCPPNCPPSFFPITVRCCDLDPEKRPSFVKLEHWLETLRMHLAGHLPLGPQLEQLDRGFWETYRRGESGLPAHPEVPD
# Text: LIMK1 activity assay. LIMK1 activity in the absence or presence of different concentrations of LIMKi (or DMSO) was determine with a commercial assay following the manufacturer's instructions (Promega).
# C57B^1/6 mice = experiment: PTZ-induced excitotoxic seizure model; format: in vivo, mouse; conditions: for mean seizure severity: n=9
# Method: as §1
# Seizure model. Excitotoxic seizure were induced in mice by intraperitoneal injection of 50 mg/kg body weight pentylenetetrazole followed by observation in a square area (40×40 cm). Scoring of seizures was done as previously described (Ittner et al., 2010, Cell 142, 387-397). For LIMKi-treated mice, scoring was adjusted by combining the severe seizure scores 5 to 7 into a single score of 5. For both scales, minor to moderate seizures are reflected by scores <5.
# [4] = APP23 mice, 1 hour after administration
# [5] = APP23 mice, 1 hour after administration, listed as LIMKi
# [6] = 10 mg/kg i.p. 30 minutes prior to 50 mg/kg PTZ, vs vehicle
smiles,measurement,setting,value
Cc1c[nH]c2ncnc(N3CCN(/C(=N\C#N)Nc4cccc(Br)c4)[C@@H](C)C3)c12 [Compound 1],time in target quadrant during MWM probe trials,"APP23 mice [1]; APP23 mice, 10 mg/kg i.p. 3-4 times per week for 4 months, n=8-10",no significant differences to controls
same,learning in Morris water maze,"APP23 mice [1]; APP23 mice, 10 mg/kg i.p. 3-4 times per week from 3 to 7 months of age",improved learning of APP23 mice to vehicle control levels
same,memory performance in MWM,"APP23 mice [1]; APP23 mice, after four months of treatment, tested at 7 months of age",improved memory performance
same,learning in Morris water maze,"APP23 mice [1]; non-transgenic control mice, 10 mg/kg i.p. 3-4 times per week for 4 months, 10 mg/kg",delayed learning
same,learning in Morris water maze,"APP23 mice [1]; non-transgenic control mice, 10 mg/kg i.p. 3-4 times per week for 4 months, listed as LIMKi, 10 mg/kg",moderately delayed learning
same,cross frequency coupling (CFC),"APP23 mice [2]; APP23 mice, 1 hour after administration, data not shown",re-established
same,amplitude phase in EEG recordings,APP23 mice [2]; [4],normalized
same,modulation index of cross frequency coupling,APP23 mice [2]; [4],normalized
same,amplitude phase in EEG recordings,APP23 mice [2]; [5],corrected 1 hour after LIMKi delivery and no longer different from wt controls
same,modulation index of cross frequency coupling,APP23 mice [2]; [5],corrected 1 hours after LIMKi administration and no longer different from wt controls
same,spike frequency / hypersynchronous discharges in EEG,APP23 mice [2]; APP23 mice,hypersynchronicity significantly decreased
same,spike frequency / hypersynchronous discharges in EEG,"APP23 mice [2]; APP23 mice, listed as LIMKi",significantly reduced spike frequency
same,spike activity in EEG,"APP23 mice [2]; non-transgenic (wt) mice, pre and post injection",No overt spike activity
same,Aβ-induced death of cultured neurons (cell viability),[3],dose-dependent protection
same,Aβ-induced dendritic spine loss,[3],dose-dependent protection
same,LIMK1 activity,LIMK1,inhibition of the kinase by LIMKi at all concentrations tested
same,latency to develop severe seizures,"C57B^1/6 mice; 10 mg/kg 30 minutes prior to PTZ, C57B1/6 mice",increased the latency to develop severe seizures
same,latency to develop lower grade seizures (score<5),C57B^1/6 mice; [6],Delayed latency to develop lower grade seizures
same,mean seizure severity,C57B^1/6 mice; [6],significantly reduced mean seizure severity
same,mean seizure severity,"C57B^1/6 mice; 10 mg/kg i.p. 30 minutes prior to 50 mg/kg PTZ, vs vehicle, listed as LIMKi",Significantly reduced seizure severity
